Source: a melting point compilation (Tetko et al.; mined from patent text by program, amines drawn as free bases though some values may be those of a salt)

| Structure (SMILES) | melting point |
| --- | --- |
| O=c1ccc(S(=O)(=O)c2cc3ccccc3[nH]2)n[nH]1 | 248 to 249 °C |
| Cc1nc(N2CCC[C@H]2CO)c2nc(-c3ccccc3)cc-2[nH]1 | 255 to 256 °C |
| COc1ccc2c(Cl)cc3nc(C(=O)O)cn3c2c1 | 277 to 278 °C |
| O=C(CN1C(=O)c2ccccc2S1(=O)=O)OCCO | 125 to 126 °C |
| CCc1nc(C)cn1S(=O)(=O)c1c[nH]cn1 | 147 to 148 °C |
| Cc1nc(-c2cc(C(N)=O)c(=O)[nH]c2C)cs1 | > 300 °C |
| CCCCOc1ccc(-c2ccc3c(c2)C=C(C(=O)O)CCS3(=O)=O)cc1 | 244 to 247 °C |
| CCNc1nc(C)c(-c2ccnc(Nc3ccc(N4CCOCC4)c(Cl)c3)n2)s1 | 273 to 274 °C |
| CCOCc1nc2c(N)nc(C)cc2n1CCCCN | 108 to 111 °C |
| O=C(c1cccc(C(F)(F)F)c1)c1cc2c(F)ccc(Br)c2o1 | 114 to 115 °C |
| N#Cc1cncc(C2OC(CO)C(O)C2O)c1 (stereo not drawn) | 169 to 171 °C |
| O=C(Nc1ccccn1)c1nc(-c2ccccc2)c2ccccc2c1O | 228 to 230 °C |
| ClC(=NNc1ccccc1)c1ccc(Cl)cc1Cl | 88.5 to 89.5 °C |
| O=C1CCC(N2Cc3c(OCc4ccc(OCCN5CCOCC5)cc4)cccc3C2=O)C(=O)N1 (stereo not drawn) | 203 to 205 °C |
| CCOC(=O)Oc1ccc(/C(=C(/CC)c2ccccc2)c2ccc(/C=C/C(=O)O)cc2)cc1 | 135 to 136 °C |
| CCc1cc(-c2nc(C)c(-c3ccnc(Nc4ccc(S(=O)(=O)NCCO)cc4)n3)s2)ccn1 | 233 to 234 °C |
| CC12CC=C3C(CCC4(CCSc5ncccn5)CC(O)CCC34C)C1CCC2O (stereo not drawn) | 156 °C |
| CC(C)(C)c1ccc(C#N)cc1NC(=O)Nc1cccnc1 | 194 to 196 °C |
| O=S(=O)(C(=Cc1ccc(Cl)cc1)SC(=Cc1ccc(Cl)cc1)S(=O)(=O)c1ccccc1)c1ccccc1 | 251 °C |
| Cc1cccc(C(=O)O)c1N(C)S(=O)(=O)c1ccc(OCCCNC(=O)c2ccc3c(c2)OCO3)cc1 | 120 °C |
| CC(C)NC(=O)NCCCOc1cc(CN2CCCCC2)ccn1 | 58 to 60 °C |
| CC[C@@H](c1ccccc1)N(Cc1ccc(C(=O)N2CCC[C@@H]2CO)cc1)S(=O)(=O)c1ccc(Cl)cc1 | 120 to 121 °C |
| CC(=O)OC1CSC(Oc2cccnc2CN(C)C)C(OC(C)=O)C1OC(C)=O (stereo not drawn) | 105 °C |
| O=C(NCc1ccccn1)Nc1cc(N2CC(c3ccc(F)cc3)CC2=O)ccn1 (stereo not drawn) | 153 to 155 °C |
| CCOc1ccccc1C(C)CC(=O)Nc1sc2c(c1C#N)CCNC2 (racemic) | 111 to 115 °C |

| Structure (SMILES) | melting point |
| --- | --- |
| COc1ccc(C2=NN(C(=O)c3cccnc3)CC2)c(OC)c1 | 112 to 113 °C |
| CNS(=O)(=O)c1ccc(-c2cnc3[nH]c(CCc4cc(OC)ccn4)nc3c2)cc1 | 225 to 227 °C |
| COc1cccc(C2=C(c3ccc(C(=O)N4Cc5cccn5Cc5ccccc54)cc3C)CCCC2)c1 | 91 to 94 °C |
| COc1ccc(-c2cc3ccccc3[nH]2)cc1NC(=S)NCCNC(=O)OC(C)(C)C | 159 to 160 °C |
| Fc1ccc(SC(c2cc(F)ccc2F)c2cc(Cl)ncc2Cl)cc1 (stereo not drawn) | 95 to 97 °C |
| COc1ccc(OCC(O)CO)cc1 (stereo not drawn) | 73 to 74 °C |
| Cc1noc(C(=O)NCCc2ccc(S(N)(=O)=O)cc2)n1 | 218 to 220 °C |
| CC(C)CN(CC(C)C)C(=O)c1c([N+](=O)[O-])cccc1[N+](=O)[O-] | 97 to 99 °C |
| CC#CCOc1ccc(S(=O)(=O)N(C)CCC(=O)O)cc1 | 90 to 110 °C |
| CC(C)(C)C1=C(c2cc(O)c3nc(-c4ccccc4)oc3c2)OCC1(C)C | 160 to 161 °C |
| COCCCS(=O)(=O)NC(=O)CCc1ccc(OCCOC)cc1Oc1ncc(C(F)(F)F)cc1Cl | 112 to 113 °C |
| COC(=O)c1cn2c(=O)c(C)c(C)nc2s1 | 158 to 159 °C |
| O=C(CCc1cnn(-c2ccccc2)c1-c1ccccc1)Nc1ccc(C(=O)O)cc1 | 254 to 256 °C |
| CC(C)=CC(C)(S)[C@@H](NC=O)C(=O)O (stereo partly drawn) | 183 to 184 °C |
| Cc1cncc(C)c1-c1c(C)cc(I)cc1C | 242 to 243 °C |
| CC(n1cnc2cc(I)ccc2c1=O)C(O)(Cn1cncn1)c1ccc(F)cc1F (stereo not drawn) | 155 to 156 °C |
| CS(=O)(=O)Nc1ccc(C=O)cc1Oc1ccc(F)cc1F | 156 to 157 °C |
| COc1ccc(S(=O)(=O)N(Cc2cccnc2)c2c(C(=O)O)cnc3c2c(C)nn3-c2ccccc2)cc1 | 192 to 194 °C |
| Cc1cccc(N(C)C(=O)NC2N=C(c3ccccc3F)c3ccccc3N(CC(=O)N3CC4CCC(CC4)C3)C2=O)c1 (racemic) | 207 to 212 °C |
| CC(F)c1nc[nH]c(=O)c1Cl (stereo not drawn) | 190 to 191 °C |
| CCOC(=O)CC1CN=C(c2cc3cccc(N(C)S(=O)(=O)c4cccnc4)c3[nH]2)S1 (stereo not drawn) | 146 to 147 °C |
| CCCCCCCCCCCCc1ccccc1C(Sc1nc(CCC)c(C(=O)O)n1C)C(=O)O (stereo not drawn) | 124 to 125 °C |
| CN(C)C(=O)Oc1ccc(Cl)c2c1C(=O)c1ccccc1C2=O | 182 to 184 °C |
| COC(=O)[C@H](CCCCNC(=O)c1csc(NC(=O)NCc2ccccc2)n1)NC(=O)OC(C)(C)C | 166 °C |
| CN(C)C=Nc1c(Cl)cc(N=Cc2ccc(-c3ccccc3)cc2)cc1Cl | 108 to 110 °C |

| Structure (SMILES) | melting point |
| --- | --- |
| Cc1c(NC(=O)C(CSC(=O)c2cccs2)Cc2ccccc2)cccc1C(=O)O (stereo not drawn) | 164 to 167 °C |
| COc1ccc2c(c1)C(c1ccc(Cl)cc1)=NC(CC(=O)NC1CCCCC1)c1nnc(C)n1-2 (stereo not drawn) | > 260 °C |
| COC(=O)c1nc(S(C)(=O)=O)ncc1Cl | 96 °C |
| COc1cc(Cl)ccc1C(=O)Nc1ccc(C(=O)N2Cc3cccn3Cc3ccccc32)cc1 | 222 to 224 °C |
| O=S(CCCCOc1ccc(C2=C(c3ccccc3)CCCc3cc(O)ccc32)cc1)Cc1ccccn1 (stereo not drawn) | 162 °C |
| CCCCCCCCCCCCCCCCOc1cc(C(=O)O)c(O)c2ccccc12 | 121 to 124 °C |
| O=C1c2ccccc2C(=O)N1CCN1CCC(=C(c2ccccc2)c2ccccc2)CC1 | 106 to 108 °C |
| O=C1NC(N2CCN(c3ccncc3)CC2)c2ccccc21 (stereo not drawn) | 210 to 214 °C |
| COc1ccc2c(Oc3ccc(OCCN4CCCCC4)cc3)c(-c3cccc(O)c3)ccc2c1 | 170 to 171 °C |
| Cc1[nH]nc(Oc2ccc([N+](=O)[O-])cc2C(F)(F)F)c1C | 97 to 99 °C |
| CCCCc1c(/C=C/c2ccccc2OCC)nc2ccc(C(=O)O)cn2c1=O | 265 to 268 °C |
| CCON(c1ccc([N+](=O)[O-])cc1Cl)S(=O)(=O)c1ccc(C)cc1 | 134 to 135 °C |
| CCOC(=O)/C=C/c1ccc(C(C)(C)C)c([N+](=O)[O-])c1 | 77 to 78 °C |
| COc1ccc2cccc(N3CCN(CCC4CC(=O)Nc5ccccc54)CC3)c2c1 (stereo not drawn) | 177 to 178 °C |
| O=C(Cc1ccccc1)Nc1ccc2oc3c(c2c1)CCCC3 | 180 to 181 °C |
| COc1ccc2c(c1)CCC(CC#N)C2=O (stereo not drawn) | 90 to 93 °C |
| O=C(NCc1ccc(Cl)cc1)c1cnc2c(I)cc(CO)cc2c1O | 283 to 286 °C |
| CC(C)(C)[Si](C)(C)OC(=O)O[Si](C)(C)C(C)(C)C | 128 to 130 °C |
| COc1ccc(OCc2ccccn2)cc1/C=C/c1cc(/C=C/c2c[nH]c3ccccc23)n[nH]1 | 233 to 238 °C |
| COc1cccc(N2CCCN(c3ccnc4sc(C(N)=O)c(N)c34)CC2)c1 | 193 to 195 °C |
| O=C(NC1CCC1)c1ccc(F)c2c1CC(N(CCCc1c[nH]c3ccc(F)cc13)C1CCC1)CO2 (stereo not drawn) | 135 °C |
| CC(=NNC(=N)N)c1cccc(OCc2ccc3ccccc3c2)c1 | 176 to 178 °C |
| COc1c2c(c(OC)c(OC)c1OC)CCC(CCn1nnc3ccccc31)CC2 | 99 to 101 °C |
| CC1=C(N2CCN(C(=O)Nc3ccc(Cl)cc3)CC2)C(=O)c2ccccc2C1=O | 190 to 192 °C |
| O=C(NC1(C(=O)O)CCCCC1)C(CS)Cc1ccccc1 (stereo not drawn) | 193 to 195 °C |

| Structure (SMILES) | melting point |
| --- | --- |
| CS(=O)(=O)c1ccc(-c2cccn2-c2ccc(F)c(Cl)c2)cc1 | 146 to 149 °C |
| CC(C)(C)OC(=O)Nc1ccccc1C1Cc2ccccc2N1C(=O)OC(C)(C)C (stereo not drawn) | 148 to 150 °C |
| COc1ccc(-c2c(Cl)c(CN3CCCC3=O)nc3sc4cnccc4c23)cc1OC | 228 to 230 °C |
| CN1C(=O)CN(c2ccc(F)cc2)NC1=O | 205 to 206 °C |
| CCN(C(=O)n1nnc2cc(C)cc(C)c21)c1ccccc1 | 90 °C |
| CN1C(=O)CCC1(O)c1ccc(Cl)c(N)c1 (stereo not drawn) | 154 °C |
| N[C@@H](Cc1ccccc1)C(=O)N(CC1CC(Br)=NO1)C(=O)OCc1ccccc1 (stereo partly drawn) | 122 to 125 °C |
| CN(Cc1ccc(COC(=O)NC(Cc2ccccc2)C(=O)O)cc1)c1ccccc1 (stereo not drawn) | 69.6 to 70.1 °C |
| CN1C(C)(C)CC2(CC1(C)C)NC(=O)N(CC(O)COCC(O)COCC(O)CN1C(=O)NC3(CC(C)(C)N(C)C(C)(C)C3)C1=O)C2=O (stereo not drawn) | 175 to 177 °C |
| CSC1=C([N+](=O)[O-])CCCN1 | 230 to 232 °C |
| Cn1cc(C2CCC(=O)C2)c2cc(F)ccc21 (stereo not drawn) | 104 to 105 °C |
| Cc1onc(-c2ccc(C(F)(F)F)cc2)c1CCl | 91 to 92 °C |
| N#Cc1cccc(NCC(=O)Nc2c(Cl)ccc3nc(N4CC[C@@H](O)C4)ccc23)c1 | 254 to 256 °C |
| COc1cc(NC(=O)c2ccccn2)ccc1Oc1ncccn1 | 203 to 205 °C |
| CC(N1C(=O)C(=O)N(c2ccc(C(C)(C)C)cc2)C1=S)C(C)(C)C (stereo not drawn) | 209 to 210 °C |
| Cc1ccsc1-c1nc(COc2ccc(CCCCn3ccnc3)cc2)co1 | 88 to 89 °C |
| Fc1cc(F)c(-c2c(Cl)nc3nc(SCc4ccccc4)nn3c2Cl)c(F)c1 | 106 °C |
| CCCCCCOc1ccc(O)c2cc(C)c(C)cc12 | 72 to 73 °C |
| O[C@H](COc1ccccc1C=Cc1nc2ccccc2s1)CN1CCC(c2ccc3ccccc3c2)CC1 | 125 to 127 °C |
| Cc1cc(C)c2c(c1O)C(=O)C1CCCCC21 (stereo not drawn) | 64 to 65 °C |
| CCOC(=O)N1Cc2cc(NN=C(C)C)nnc2C(C)C1 (stereo not drawn) | 140 to 142 °C |
| O=C(O)C=CC(F)(F)F | 95 to 100 °C |
| COc1cccc(-c2cn(-c3ccccc3)c3ncnc(N)c23)c1 | 159 to 160 °C |
